{"source": "patent US20230305022A1", "about": "“Biomarkers in Primary Biliary Cholangitis” (University of Newcastle upon Tyne, priority 2020, published 2023)", "system": "Ep-CAM", "assay": "Discovery serum proteomics (Olink), UDCA-treated vs treatment-naïve PBC patients", "type": "in vivo, human", "settings": "serum NPX, UDCA 13-15 mg/kg/day for >12 months (n=416) vs treatment-naïve (n=68)", "protocol": "UDCA-Treated PBC: These were PBC patients who had been taking UDCA at a therapeutic dose (13-15 mg/kg/day) for greater than 12 months. Clinical parameters, including serum biochemistry were available both pre-treatment and after 12 months of UDCA therapy. This allowed all UDCA-treated patients to be assigned to responder and non-responder groups using current standard criteria including Paris 1 (Alanine Transaminase (ALT)>2× upper limit of normal [ULN], Alkaline Phosphatase (ALP)>3×ULN, Bilirubin>1×ULN) (Corpechot et al., 2008), Paris 2 (ALP and ALT both >1.5×ULN)(Corpechot et al., 2011) and POISE (ALP <1.67×ULN and bilirubin <1×ULN) (Nevens et al., 2016). UK-PBC risk score 10-year predicted survival was also calculated for UDCA-treated patients after therapy. Patients taking fibrates and or OCA were not included in the current study. […]\nBlood was collected under the approval of the Human Tissue Authority (HTA) by the UK-PBC tissue Bioresource with written informed patient consent obtained in accordance with research and ethics committee (REC) approval (14/NW/1146). […] 4 μl serum was analysed for 368 analytes from 4 distinct panels including Cardiovascular II &Ill, Inflammation and Oncology II (https://www.olink.com/). […] In turn, this was amplified by microfluidic quantitative PCR with normalised protein expression (NPX) data generated by a ΔΔct calculation method. […]"}
{"molecule": "C[C@H](CCC(=O)O)[C@H]1CC[C@H]2[C@@H]3[C@@H](O)C[C@@H]4C[C@H](O)CC[C@]4(C)[C@H]3CC[C@]12C", "note": "[UDCA, Ursodeoxycholic acid]", "values": [{"measurement": "log Fold Change of serum protein, UDCA Tx vs Naïve Tx", "result": "−0.84"}]}
